Laboratory results: PubChem BioAssay (NCI)
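The compound was tested at five concentrations on cells cultured in 96-well plates, with a 48-hour exposure period. TGI: total growth inhibition.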

Assays:
Experiment in all cases: DTP human tumour cell line panel, 48 h
786-0 renal = test system: 786-0 renal
A498 renal = test system: A498 renal
A549 NSCLC = test system: A549 NSCLC
ACHN renal = test system: ACHN renal
BT-549 breast = test system: BT-549 breast
CAKI-1 renal = test system: CAKI-1 renal
CCRF-CEM leukemia = test system: CCRF-CEM leukemia
EKVX NSCLC = test system: EKVX NSCLC
HCC-2998 colon = test system: HCC-2998 colon
HCT-116 colon = test system: HCT-116 colon
HCT-15 colon = test system: HCT-15 colon
HOP-62 NSCLC = test system: HOP-62 NSCLC
HOP-92 NSCLC = test system: HOP-92 NSCLC
HS 578T breast = test system: HS 578T breast
HT29 colon = test system: HT29 colon
IGROV1 ovarian = test system: IGROV1 ovarian
K-562 leukemia = test system: K-562 leukemia
KM12 colon = test system: KM12 colon
LOX IMVI melanoma = test system: LOX IMVI melanoma
M14 melanoma = test system: M14 melanoma
MALME-3M melanoma = test system: MALME-3M melanoma
MCF7 breast = test system: MCF7 breast
MDA-MB-231 breast = test system: MDA-MB-231 breast
MDA-MB-435 = test system: MDA-MB-435
MDA-N = test system: MDA-N
MOLT-4 leukemia = test system: MOLT-4 leukemia
NCI-H226 lung = test system: NCI-H226 lung
NCI-H23 lung = test system: NCI-H23 lung
NCI-H460 lung = test system: NCI-H460 lung
NCI-H522 lung = test system: NCI-H522 lung
NCI/ADR-RES ovarian = test system: NCI/ADR-RES ovarian
OVCAR-3 ovarian = test system: OVCAR-3 ovarian
OVCAR-4 ovarian = test system: OVCAR-4 ovarian
OVCAR-5 ovarian = test system: OVCAR-5 ovarian
OVCAR-8 ovarian = test system: OVCAR-8 ovarian
PC-3 prostate = test system: PC-3 prostate
RPMI-8226 leukemia = test system: RPMI-8226 leukemia
RXF 393 renal = test system: RXF 393 renal
SF-268 CNS = test system: SF-268 CNS
SF-295 CNS = test system: SF-295 CNS
SF-539 CNS = test system: SF-539 CNS
SK-MEL-2 melanoma = test system: SK-MEL-2 melanoma
SK-MEL-28 melanoma = test system: SK-MEL-28 melanoma
SK-MEL-5 melanoma = test system: SK-MEL-5 melanoma
SK-OV-3 ovarian = test system: SK-OV-3 ovarian
SN12C renal = test system: SN12C renal
SNB-75 CNS = test system: SNB-75 CNS
SR leukemia = test system: SR leukemia
SW-620 colon = test system: SW-620 colon
T-47D breast = test system: T-47D breast
TK-10 renal = test system: TK-10 renal
U251 CNS = test system: U251 CNS
UACC-257 melanoma = test system: UACC-257 melanoma
UACC-62 melanoma = test system: UACC-62 melanoma
UO-31 renal = test system: UO-31 renal
COLO 205 colon = test system: COLO 205 colon
DU-145 prostate = test system: DU-145 prostate
HL-60(TB) leukemia = test system: HL-60(TB) leukemia
SNB-19 CNS = test system: SNB-19 CNS

Measured: TGI

CCc1cccc(C(C)C)c1NC(=O)C(=O)Nn1c(=S)[nH]c2ccccc2c1=O
not listed: COLO 205 colon | DU-145 prostate | HL-60(TB) leukemia | SNB-19 CNS
> 100 µM: all other assays above

COc1ccc(/C=N/NS(=O)(=O)c2ccc(/C=C3\NC(=O)NC3=O)cc2)cc1
77.9 µM: SNB-75 CNS
86.9 µM: SF-268 CNS
not listed: NCI-H522 lung | SF-539 CNS | SR leukemia
> 100 µM: all other assays above

Cc1ccc(S(=O)(=O)NC(=O)NC(CCCCN)C(=O)O)cc1 (configuration not stated)
not listed: A498 renal | CAKI-1 renal | EKVX NSCLC | HCC-2998 colon | HT29 colon | MDA-MB-435 | NCI-H226 lung | OVCAR-3 ovarian | OVCAR-5 ovarian
> 100 µM: all other assays above

COC(=O)CSc1cc(Cl)c(C)cc1S(=O)(=O)Nc1n[nH]c(N)n1
not listed: MDA-MB-231 breast | MDA-MB-435 | UACC-62 melanoma
> 10 µM: all other assays above
